Tests used:
[1] = in vitro; details: mouse, liver microsomes
[2] = in vitro; details: human, liver microsomes

Question: For Cc1ccc(-c2cc(-c3ccc(OCCCC(F)(F)F)cc3)[nH]c(=O)c2NC(=O)c2ccno2)cc1, which remaining at 10 min [1] is on record?
Answer: The remaining at 10 min was 27%.

Question: What about the remaining at 10 min [2] of the same molecule?
Answer: The remaining at 10 min was 64%.

Reference: ChEMBL document CHEMBL5321253, “Discovery of novel pyridinones as MGAT2 inhibitors for the treatment of metabolic disorders” (Bioorg Med Chem Lett, 2023)
